Consider 14 compounds from PubChem BioAssay AID252 (DTP/NCI, 2004).

The assay concerns BDF1 mice, intracerebral L1210 leukemia, survival T/C. Briefly: NCI In Vivo Anticancer Drug Screen. Data for tumor model L1210 Leukemia (intracerebral) in B6D2F1 (BDF1) mice. To be noted: higher = longer survival. In short, it runs like this: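 Readout is the T/C ratio: survival of compound-treated animals over that of vehicle-treated controls, in mice bearing transplantable tumour.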

Molecules are shown by their SMILES. Values joined by “and” are separate entries in the source; they are usually repeats but may differ in a detail not shown here. Equal entries are not always repeated. Toxic doses and inconclusive results are not listed.

For the compound `COc1ccc2c(Nc3ccc(NS(C)(=O)=O)cc3)c3ccccc3nc2c1`, the T/C (endpoint: mean survival time, dose: 6.25 mg/kg/injection, schedule: Q01DX009 (ip), vehicle: saline) is 106 % of control; the T/C (endpoint: mean survival time, dose: 6.25 mg/kg/injection, schedule: Q01DX009 (sc), vehicle: saline) was 104 % of control; the T/C (endpoint: mean survival time, dose: 12.5 mg/kg/injection, schedule: Q01DX009 (ip), vehicle: saline) was 102 % of control; the T/C (endpoint: mean survival time, dose: 12.5 mg/kg/injection, schedule: Q01DX009 (sc), vehicle: saline) was 100 % of control; the T/C (endpoint: mean survival time, dose: 25.0 mg/kg/injection, schedule: Q01DX009 (sc), vehicle: saline) was 106 % of control; the T/C (endpoint: mean survival time, dose: 50.0 mg/kg/injection, schedule: Q01DX009 (sc), vehicle: saline) is 88 % of control.

Regarding `NC(C/[N+]([O-])=N/O)C(=O)O` (centres undefined), the T/C is 96 % of control (endpoint: mean survival time, dose: 25.0 mg/kg/injection, schedule: Q01DX009 (ip), vehicle: other); 97 % of control (endpoint: mean survival time, dose: 50.0 mg/kg/injection, schedule: Q01DX001 (ip), vehicle: other); 98 % of control (endpoint: mean survival time, dose: 50.0 mg/kg/injection, schedule: Q01DX009 (ip), vehicle: other); 98 % of control (endpoint: mean survival time, dose: 100.0 mg/kg/injection, schedule: Q01DX001 (ip), vehicle: other); 91 % of control (endpoint: mean survival time, dose: 100.0 mg/kg/injection, schedule: Q01DX009 (ip), vehicle: other); 101 % of control (endpoint: mean survival time, dose: 200.0 mg/kg/injection, schedule: Q01DX001 (ip), vehicle: other). Moreover, the T/C (endpoint: mean survival time, dose: 400.0 mg/kg/injection, schedule: Q01DX001 (ip), vehicle: other) is 106 % of control.

`COCCOC1=C(N2CC2)C(=O)C(OCCOC)=C(N2CC2)C1=O`: the T/C is 98 % of control and 100 % of control (endpoint: mean survival time, dose: 0.25 mg/kg/injection, schedule: Q01DX009 (ip), vehicle: saline); 105 % of control and 109 % of control (endpoint: mean survival time, dose: 1.0 mg/kg/injection, schedule: Q01DX009 (ip), vehicle: saline); 104 % of control and 112 % of control and 114 % of control (endpoint: mean survival time, dose: 2.0 mg/kg/injection, schedule: Q01DX009 (ip), vehicle: saline).

As for `CN(C)N=Nc1ccc(C(N)=O)cc1`, the T/C is 98 % of control (endpoint: median survival time, dose: 10.0 mg/kg/injection, schedule: Q01DX009 (ip), vehicle: saline with Tween-80); 107 % of control (endpoint: median survival time, dose: 20.0 mg/kg/injection, schedule: Q01DX009 (ip), vehicle: saline with Tween-80); 109 % of control (endpoint: median survival time, dose: 40.0 mg/kg/injection, schedule: Q01DX009 (ip), vehicle: saline with Tween-80).

Turning to `CCN(CC)c1ccc2cc3ccc(=[N+](CC)CC)cc-3oc2c1`, the T/C (endpoint: mean survival time, dose: 8.0 mg/kg/injection, schedule: Q01DX001 (ip), vehicle: saline) is 97 % of control; the T/C (endpoint: mean survival time, dose: 13.0 mg/kg/injection, schedule: Q01DX001 (ip), vehicle: saline) was 96 % of control; the T/C (endpoint: mean survival time, dose: 19.0 mg/kg/injection, schedule: Q01DX001 (ip), vehicle: saline) was 100 % of control.

With `COc1cc(NS(C)(=O)=O)ccc1Nc1c2ccccc2nc2c(C)cccc12`, the T/C was 116 % of control and 113 % of control (endpoint: mean survival time, dose: 2.5 mg/kg/injection, schedule: Q01DX009 (ip), vehicle: water); 112 % of control and 111 % of control (endpoint: mean survival time, dose: 2.5 mg/kg/injection, schedule: Q01DX009 (sc), vehicle: water); 112 % of control (endpoint: mean survival time, dose: 5.0 mg/kg/injection, schedule: Q01DX009 (ip), vehicle: water); 105 % of control and 104 % of control (endpoint: mean survival time, dose: 5.0 mg/kg/injection, schedule: Q01DX009 (sc), vehicle: water); 103 % of control (endpoint: mean survival time, dose: 10.0 mg/kg/injection, schedule: Q01DX009 (sc), vehicle: water).

As to `OCCN1CCN(CC/C=C2/c3ccccc3Sc3ccc(C(F)(F)F)cc32)CC1`, the T/C runs as follows: (endpoint: mean survival time, dose: 3.12 mg/kg/injection, schedule: Q04DX003 (ip), vehicle: saline) 113 % of control; (endpoint: mean survival time, dose: 6.25 mg/kg/injection, schedule: Q04DX003 (ip), vehicle: saline) 111 % of control; (endpoint: mean survival time, dose: 12.5 mg/kg/injection, schedule: Q04DX003 (ip), vehicle: saline) 113 % of control; (endpoint: mean survival time, dose: 25.0 mg/kg/injection, schedule: Q04DX003 (ip), vehicle: saline) 100 % of control.

As for `O=NN(CCCl)C(=O)Nc1ccc2c(c1)CCCC2`, the T/C is, setting by setting: (endpoint: mean survival time, dose: 125.0 mg/kg/injection, schedule: Q01DX001 (ip), vehicle: carboxymethylcellulose (CMC)) 157 % of control; (endpoint: mean survival time, dose: 178.0 mg/kg/injection, schedule: Q01DX001 (ip), vehicle: carboxymethylcellulose (CMC)) 150 % of control; (endpoint: mean survival time, dose: 187.0 mg/kg/injection, schedule: Q01DX001 (ip), vehicle: carboxymethylcellulose (CMC)) 97 % of control; (endpoint: mean survival time, dose: 238.0 mg/kg/injection, schedule: Q01DX001 (ip), vehicle: carboxymethylcellulose (CMC)) 100 % of control.

For the compound `c1nc(SSc2ncnc3nc[nH]c23)c2[nH]cnc2n1`, the T/C (endpoint: mean survival time, dose: 75.0 mg/kg/injection, schedule: Q04DX003 (ip), vehicle: Klucel (hydroxypropylcellulose) (HPC)) is 108 % of control.

For `O=NN(CCCl)C(=O)NC1CCC(NC(=O)N(CCCl)N=O)CC1` (centres undefined), the T/C runs as follows: (endpoint: mean survival time, dose: 38.0 mg/kg/injection, schedule: Q01DX001 (oral), vehicle: other) 119 % of control; (endpoint: mean survival time, dose: 48.0 mg/kg/injection, schedule: Q01DX001 (ip), vehicle: other) 151 % of control and 157 % of control; (endpoint: mean survival time, dose: 84.0 mg/kg/injection, schedule: Q01DX001 (oral), vehicle: other) 154 % of control; (endpoint: mean survival time, dose: 96.0 mg/kg/injection, schedule: Q01DX001 (ip), vehicle: other) 276 % of control and 370 % of control; (endpoint: mean survival time, dose: 127.0 mg/kg/injection, schedule: Q01DX001 (ip), vehicle: carboxymethylcellulose (CMC)) 232 % of control; (endpoint: mean survival time, dose: 171.0 mg/kg/injection, schedule: Q01DX001 (oral), vehicle: other) 209 % of control. The T/C by setting is: (endpoint: mean survival time, dose: 191.0 mg/kg/injection, schedule: Q01DX001 (ip), vehicle: other) 291 % of control and 389 % of control; (endpoint: mean survival time, dose: 255.0 mg/kg/injection, schedule: Q01DX001 (ip), vehicle: carboxymethylcellulose (CMC)) 307 % of control; (endpoint: mean survival time, dose: 319.0 mg/kg/injection, schedule: Q01DX001 (oral), vehicle: other) 198 % of control and 260 % of control; (endpoint: mean survival time, dose: 383.0 mg/kg/injection, schedule: Q01DX001 (ip), vehicle: other) 154 % of control; (endpoint: mean survival time, dose: 510.0 mg/kg/injection, schedule: Q01DX001 (ip), vehicle: carboxymethylcellulose (CMC)) 154 % of control; (endpoint: mean survival time, dose: 638.0 mg/kg/injection, schedule: Q01DX001 (oral), vehicle: other) 268 % of control and 398 % of control.

As for `CN(C)NCCC#N`, the T/C (endpoint: mean survival time, dose: 27.0 mg/kg/injection, schedule: Q01DX Z (ip), vehicle: saline) was 105 % of control; the T/C (endpoint: mean survival time, dose: 40.0 mg/kg/injection, schedule: Q01DX Z (ip), vehicle: saline) is 110 % of control; the T/C (endpoint: mean survival time, dose: 60.0 mg/kg/injection, schedule: Q01DX Z (ip), vehicle: saline) is 108 % of control; the T/C (endpoint: mean survival time, dose: 90.0 mg/kg/injection, schedule: Q01DX Z (ip), vehicle: saline) is 109 % of control.

As for `S=c1nc[nH]c2nc[nH]c12`, the T/C was 122 % of control (endpoint: mean survival time, dose: 5.0 mg/kg/injection, schedule: Q01DX009 (ip), vehicle: alkali diluted with saline); 114 % of control (endpoint: mean survival time, dose: 6.0 mg/kg/injection, schedule: Q01DX015 (ip), vehicle: alkali diluted with saline); 120 % of control (endpoint: mean survival time, dose: 9.0 mg/kg/injection, schedule: Q01DX015 (ip), vehicle: alkali diluted with saline); 120 % of control (endpoint: mean survival time, dose: 14.0 mg/kg/injection, schedule: Q01DX015 (ip), vehicle: alkali diluted with saline); 111 % of control (endpoint: mean survival time, dose: 60.0 mg/kg/injection, schedule: Q01DX001 (ip), vehicle: alkali diluted with saline); 181 % of control (endpoint: mean survival time, dose: 80.0 mg/kg/injection, schedule: Q01DX009 (ip), vehicle: alkali diluted with saline). Moreover, the T/C was 117 % of control (endpoint: mean survival time, dose: 90.0 mg/kg/injection, schedule: Q01DX001 (ip), vehicle: alkali diluted with saline); 115 % of control (endpoint: mean survival time, dose: 135.0 mg/kg/injection, schedule: Q01DX001 (ip), vehicle: alkali diluted with saline); 115 % of control (endpoint: median survival time, dose: 100.0 mg/kg/injection, schedule: Q01DX001 (oral), vehicle: saline with Tween-80); 113 % of control (endpoint: median survival time, dose: 200.0 mg/kg/injection, schedule: Q01DX001 (oral), vehicle: saline with Tween-80); 118 % of control (endpoint: median survival time, dose: 400.0 mg/kg/injection, schedule: Q01DX001 (oral), vehicle: saline with Tween-80).

Regarding `C[n+]1c2ccccc2c(Nc2ccc(NS(=O)(=O)CCCCN=C(N)N)cc2)c2ccc(N)cc21`, the T/C reads like this: (endpoint: mean survival time, dose: 1.5 mg/kg/injection, schedule: Q01DX009 (ip), vehicle: water) 103 % of control; (endpoint: mean survival time, dose: 3.0 mg/kg/injection, schedule: Q01DX009 (ip), vehicle: water) 121 % of control; (endpoint: mean survival time, dose: 6.0 mg/kg/injection, schedule: Q01DX009 (ip), vehicle: water) 117 % of control; (endpoint: mean survival time, dose: 12.0 mg/kg/injection, schedule: Q01DX009 (ip), vehicle: water) 101 % of control.

Take `CNC(=N)c1ccc(NC(=N)c2ccc(NC(=O)Nc3cccc(NC(=O)Nc4ccc(C(=N)Nc5ccc(C(=N)NC)cc5)cc4)c3)cc2)cc1`: the T/C by setting is: (endpoint: mean survival time, dose: 50.0 mg/kg/injection, schedule: Q01DX001 (ip), vehicle: water) 106 % of control; (endpoint: mean survival time, dose: 75.0 mg/kg/injection, schedule: Q01DX001 (ip), vehicle: water) 109 % of control.
